Reference: publication PMC8037182, “Solvothermal Synthesis of Multiple Dihydropyrimidinones at a Time as Inhibitors of Eg5” (Molecules, 2021)
pIC50: −log10 of the molar value.

What was measured:
L929 cell line = assay: Cytotoxicity MTS assay, L929 cell line; assay type: cell-based; conditions: for OD490 values, Mean / OD490 values, Well 1 / OD490 values, Well 2 / OD490 values, Well 3: L929 cell line, first assay; for pIC50: MTS assay, 24 h exposure, ordinary fibroblast, not cancer cells
Protocol: (§1) The positive compounds (IC50 < 100 μM) obtained from the primary Eg5 motor protein ATPase assay were tested for antiproliferative activity in vitro against Caco-2 cell line, Hela cell line, L929 cell line and T24 cell line by performing MTS assay. Cells were introduced into 96-well plates at a density of 1000 cells per well. After 24 h incubation, the cells were exposed with compounds at final concentrations ranging from 0.5 to 100 µM for 24 h. DMSO was used at a final concentration of 0.025% as blank control, monastrol was used as the positive control. Then 20 µL (CellTiter 96® AQueous One Solution Promega, Madison, WI, USA) reagent was added in each well. After 2 h at 37 °C in a 80% humidified, 5% CO2 atmosphere, the absorbance at 490 nm was recorded using a microplate reader (BIO-RAD iMark^TM). The results were obtained in three independent duplicate experiments. The primary data were shown in Supplementary Materials Tables S4–S7. The IC50 values for these compounds were calculated from a non-linear regression graph plotted between the percentage of cell viability and concentration with SPSS17.0 software.

T24 cell line = assay: Cytotoxicity MTS assay, T24 cell line; assay type: cell-based; conditions: for pIC50: MTS assay, 24 h exposure; for OD490 Mean / OD490 Well 1 / OD490 Well 2 / OD490 Well 3: T24 cell line
Protocol: as §1

`CCOC(=O)c1c(C2NC(=O)NC(C)=C2C(=O)Nc2ccccc2C)[nH]c(C(=O)OC)c1C` (stereo not shown) [D2] was tested, and the “OD490 values, Mean” value (L929 cell line; 0.5μM) was 1.3610, the “OD490 values, Well 1” value (L929 cell line; 0.5μM) was 1.3640 and the “OD490 values, Well 2” value (L929 cell line; 0.5μM) was 1.3358. The “OD490 values, Well 3” value (L929 cell line; 0.5μM) was 1.3832, the “OD490 values, Mean” value (L929 cell line; 1μM) was 1.4199 and the “OD490 values, Well 1” value (L929 cell line; 1μM) was 1.4170. For the same compound, the “OD490 values, Well 2” value (L929 cell line; 1μM) was 1.4018, the “OD490 values, Well 3” value (L929 cell line; 1μM) was 1.4410 and the “OD490 values, Mean” value (L929 cell line; 10μM) was 1.4901. The “OD490 values, Well 1” value (L929 cell line; 10μM) was 1.4578, the “OD490 values, Well 2” value (L929 cell line; 10μM) was 1.4940 and the “OD490 values, Well 3” value (L929 cell line; 10μM) was 1.5185. For the same compound, the “OD490 values, Mean” value (L929 cell line; 25μM) was 1.5070, the “OD490 values, Well 1” value (L929 cell line; 25μM) was 1.5039 and the “OD490 values, Well 2” value (L929 cell line; 25μM) was 1.5321. For the same compound, the “OD490 values, Well 3” value (L929 cell line; 25μM) was 1.4850, the “OD490 values, Mean” value (L929 cell line; 50μM) was 1.4864 and the “OD490 values, Well 1” value (L929 cell line; 50μM) was 1.5650. For the same compound, the “OD490 values, Well 2” value (L929 cell line; 50μM) was 1.4275, the “OD490 values, Well 3” value (L929 cell line; 50μM) was 1.4667 and the “OD490 values, Mean” value (L929 cell line; 100μM) was 1.2316. For the same compound, the “OD490 values, Well 1” value (L929 cell line; 100μM) was 1.2364, the “OD490 values, Well 2” value (L929 cell line; 100μM) was 1.1967 and the “OD490 values, Well 3” value (L929 cell line; 100μM) was 1.2618. The pIC50 (L929 cell line) was < 3.82, the pIC50 (T24 cell line) was < 3.82 and the “OD490 Mean” value (T24 cell line; 0.5μM, first assay) was 1.8524. For the same compound, the “OD490 Well 1” value (T24 cell line; 0.5μM, first assay) was 1.8720, the “OD490 Well 2” value (T24 cell line; 0.5μM, first assay) was 1.7367 and the “OD490 Well 3” value (T24 cell line; 0.5μM, first assay) was 1.9486. For the same compound, the “OD490 Mean” value (T24 cell line; 0.5μM, second assay) was 1.7337, the “OD490 Well 1” value (T24 cell line; 0.5μM, second assay) was 1.7425 and the “OD490 Well 2” value (T24 cell line; 0.5μM, second assay) was 1.7320. The “OD490 Well 3” value (T24 cell line; 0.5μM, second assay) was 1.7265, the “OD490 Mean” value (T24 cell line; 1μM, first assay) was 1.8992 and the “OD490 Well 1” value (T24 cell line; 1μM, first assay) was 1.8529. For the same compound, the “OD490 Well 2” value (T24 cell line; 1μM, first assay) was 2.1141, the “OD490 Well 3” value (T24 cell line; 1μM, first assay) was 1.7306 and the “OD490 Mean” value (T24 cell line; 1μM, second assay) was 1.7313. The “OD490 Well 1” value (T24 cell line; 1μM, second assay) was 1.6985, the “OD490 Well 2” value (T24 cell line; 1μM, second assay) was 1.7321 and the “OD490 Well 3” value (T24 cell line; 1μM, second assay) was 1.7632. The “OD490 Mean” value (T24 cell line; 10μM, first assay) was 1.7422, the “OD490 Well 1” value (T24 cell line; 10μM, first assay) was 1.5585 and the “OD490 Well 2” value (T24 cell line; 10μM, first assay) was 1.7096. For the same compound, the “OD490 Well 3” value (T24 cell line; 10μM, first assay) was 1.9584, the “OD490 Mean” value (T24 cell line; 10μM, second assay) was 1.7005 and the “OD490 Well 1” value (T24 cell line; 10μM, second assay) was 1.6985. For the same compound, the “OD490 Well 2” value (T24 cell line; 10μM, second assay) was 1.7032, the “OD490 Well 3” value (T24 cell line; 10μM, second assay) was 1.6999 and the “OD490 Mean” value (T24 cell line; 25μM, first assay) was 1.5770. For the same compound, the “OD490 Well 1” value (T24 cell line; 25μM, first assay) was 1.7779, the “OD490 Well 2” value (T24 cell line; 25μM, first assay) was 1.7471 and the “OD490 Well 3” value (T24 cell line; 25μM, first assay) was 1.2060. For the same compound, the “OD490 Mean” value (T24 cell line; 25μM, second assay) was 1.7524, the “OD490 Well 1” value (T24 cell line; 25μM, second assay) was 1.7747 and the “OD490 Well 2” value (T24 cell line; 25μM, second assay) was 1.7842. The “OD490 Well 3” value (T24 cell line; 25μM, second assay) was 1.6982, the “OD490 Mean” value (T24 cell line; 50μM, first assay) was 1.5326 and the “OD490 Well 1” value (T24 cell line; 50μM, first assay) was 1.7713. For the same compound, the “OD490 Well 2” value (T24 cell line; 50μM, first assay) was 1.4256, the “OD490 Well 3” value (T24 cell line; 50μM, first assay) was 1.4009 and the “OD490 Mean” value (T24 cell line; 50μM, second assay) was 1.6946. The “OD490 Well 1” value (T24 cell line; 50μM, second assay) was 1.6524, the “OD490 Well 2” value (T24 cell line; 50μM, second assay) was 1.6895 and the “OD490 Well 3” value (T24 cell line; 50μM, second assay) was 1.7420. The “OD490 Mean” value (T24 cell line; 100μM, first assay) was 1.5388, the “OD490 Well 1” value (T24 cell line; 100μM, first assay) was 1.4456 and the “OD490 Well 2” value (T24 cell line; 100μM, first assay) was 1.6062. The “OD490 Well 3” value (T24 cell line; 100μM, first assay) was 1.5646, the “OD490 Mean” value (T24 cell line; 100μM, second assay) was 1.4712 and the “OD490 Well 1” value (T24 cell line; 100μM, second assay) was 1.4274. For the same compound, the “OD490 Well 2” value (T24 cell line; 100μM, second assay) was 1.5020 and the “OD490 Well 3” value (T24 cell line; 100μM, second assay) was 1.4842.

In the case of `CCOC(=O)c1[nH]c(C2NC(=O)NC(C)=C2C(=O)Nc2ccccc2OC)c(C(=O)OC)c1C` (stereo not shown) [D3], the “OD490 values, Mean” value (L929 cell line; 0.5μM) was 1.3020, the “OD490 values, Well 1” value (L929 cell line; 0.5μM) was 1.4715 and the “OD490 values, Well 2” value (L929 cell line; 0.5μM) was 1.2756. For the same compound, the “OD490 values, Well 3” value (L929 cell line; 0.5μM) was 1.1589, the “OD490 values, Mean” value (L929 cell line; 1μM) was 1.3230 and the “OD490 values, Well 1” value (L929 cell line; 1μM) was 1.4997. For the same compound, the “OD490 values, Well 2” value (L929 cell line; 1μM) was 1.2316, the “OD490 values, Well 3” value (L929 cell line; 1μM) was 1.2376 and the “OD490 values, Mean” value (L929 cell line; 10μM) was 1.3760. The “OD490 values, Well 1” value (L929 cell line; 10μM) was 1.4568, the “OD490 values, Well 2” value (L929 cell line; 10μM) was 1.4534 and the “OD490 values, Well 3” value (L929 cell line; 10μM) was 1.2179. The “OD490 values, Mean” value (L929 cell line; 25μM) was 1.2499, the “OD490 values, Well 1” value (L929 cell line; 25μM) was 1.2312 and the “OD490 values, Well 2” value (L929 cell line; 25μM) was 1.2473. For the same compound, the “OD490 values, Well 3” value (L929 cell line; 25μM) was 1.2712, the “OD490 values, Mean” value (L929 cell line; 50μM) was 1.1939 and the “OD490 values, Well 1” value (L929 cell line; 50μM) was 1.2135. For the same compound, the “OD490 values, Well 2” value (L929 cell line; 50μM) was 1.2454, the “OD490 values, Well 3” value (L929 cell line; 50μM) was 1.1229 and the “OD490 values, Mean” value (L929 cell line; 100μM) was 1.1051. For the same compound, the “OD490 values, Well 1” value (L929 cell line; 100μM) was 1.0930, the “OD490 values, Well 2” value (L929 cell line; 100μM) was 1.2053 and the “OD490 values, Well 3” value (L929 cell line; 100μM) was 1.0171. For the same compound, the pIC50 (L929 cell line) was < 3.82, the pIC50 (T24 cell line) was < 3.82 and the “OD490 Mean” value (T24 cell line; 0.5μM, first assay) was 1.8317. The “OD490 Well 1” value (T24 cell line; 0.5μM, first assay) was 1.9267, the “OD490 Well 2” value (T24 cell line; 0.5μM, first assay) was 1.7284 and the “OD490 Well 3” value (T24 cell line; 0.5μM, first assay) was 1.8399. The “OD490 Mean” value (T24 cell line; 1μM, first assay) was 1.4215, the “OD490 Well 1” value (T24 cell line; 1μM, first assay) was 1.4512 and the “OD490 Well 2” value (T24 cell line; 1μM, first assay) was 1.4430. For the same compound, the “OD490 Well 3” value (T24 cell line; 1μM, first assay) was 1.3702, the “OD490 Mean” value (T24 cell line; 10μM, first assay) was 1.5897 and the “OD490 Well 1” value (T24 cell line; 10μM, first assay) was 1.3957. For the same compound, the “OD490 Well 2” value (T24 cell line; 10μM, first assay) was 1.6776, the “OD490 Well 3” value (T24 cell line; 10μM, first assay) was 1.6957 and the “OD490 Mean” value (T24 cell line; 25μM, first assay) was 1.4932. For the same compound, the “OD490 Well 1” value (T24 cell line; 25μM, first assay) was 1.4267, the “OD490 Well 2” value (T24 cell line; 25μM, first assay) was 1.6194 and the “OD490 Well 3” value (T24 cell line; 25μM, first assay) was 1.4336. The “OD490 Mean” value (T24 cell line; 50μM, first assay) was 1.4228, the “OD490 Well 1” value (T24 cell line; 50μM, first assay) was 1.3624 and the “OD490 Well 2” value (T24 cell line; 50μM, first assay) was 1.4440. The “OD490 Well 3” value (T24 cell line; 50μM, first assay) was 1.4620, the “OD490 Mean” value (T24 cell line; 100μM, first assay) was 1.3750 and the “OD490 Well 1” value (T24 cell line; 100μM, first assay) was 1.3903. For the same compound, the “OD490 Well 2” value (T24 cell line; 100μM, first assay) was 1.4568 and the “OD490 Well 3” value (T24 cell line; 100μM, first assay) was 1.2780.
